Blank lines part the entries; values can stand above or below the compound they belong to.
Assays:
SGLT1 [1] = target: T1, SGLT1 (Homo sapiens, UniProt P13866); details: literature value (Kanai et al. 1994; US 2008/0234367); cited from earlier work
T1 sequence (P13866 1-664): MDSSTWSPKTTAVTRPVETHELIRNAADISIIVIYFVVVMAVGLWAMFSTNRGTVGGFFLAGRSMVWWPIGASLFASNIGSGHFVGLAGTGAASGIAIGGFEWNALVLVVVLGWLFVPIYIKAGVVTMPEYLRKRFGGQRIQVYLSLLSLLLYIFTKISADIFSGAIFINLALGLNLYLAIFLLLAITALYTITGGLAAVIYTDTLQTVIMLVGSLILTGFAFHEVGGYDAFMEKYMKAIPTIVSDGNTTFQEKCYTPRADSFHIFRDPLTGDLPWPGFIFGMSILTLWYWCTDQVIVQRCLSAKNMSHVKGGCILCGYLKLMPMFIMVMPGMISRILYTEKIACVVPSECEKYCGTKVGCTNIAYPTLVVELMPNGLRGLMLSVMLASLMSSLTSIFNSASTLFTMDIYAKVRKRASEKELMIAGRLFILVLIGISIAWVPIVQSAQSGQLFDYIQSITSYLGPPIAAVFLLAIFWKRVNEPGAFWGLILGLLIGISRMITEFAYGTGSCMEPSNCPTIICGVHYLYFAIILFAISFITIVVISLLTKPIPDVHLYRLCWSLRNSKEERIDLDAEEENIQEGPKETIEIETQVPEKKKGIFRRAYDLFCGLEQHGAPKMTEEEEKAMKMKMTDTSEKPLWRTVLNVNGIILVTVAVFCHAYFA

SGLT2 [2] = target: T2, SGLT2 (Homo sapiens, UniProt P31639); details: literature value (Kanai et al. 1994; US 2008/0234367); cited from earlier work
T2 sequence (P31639 1-672): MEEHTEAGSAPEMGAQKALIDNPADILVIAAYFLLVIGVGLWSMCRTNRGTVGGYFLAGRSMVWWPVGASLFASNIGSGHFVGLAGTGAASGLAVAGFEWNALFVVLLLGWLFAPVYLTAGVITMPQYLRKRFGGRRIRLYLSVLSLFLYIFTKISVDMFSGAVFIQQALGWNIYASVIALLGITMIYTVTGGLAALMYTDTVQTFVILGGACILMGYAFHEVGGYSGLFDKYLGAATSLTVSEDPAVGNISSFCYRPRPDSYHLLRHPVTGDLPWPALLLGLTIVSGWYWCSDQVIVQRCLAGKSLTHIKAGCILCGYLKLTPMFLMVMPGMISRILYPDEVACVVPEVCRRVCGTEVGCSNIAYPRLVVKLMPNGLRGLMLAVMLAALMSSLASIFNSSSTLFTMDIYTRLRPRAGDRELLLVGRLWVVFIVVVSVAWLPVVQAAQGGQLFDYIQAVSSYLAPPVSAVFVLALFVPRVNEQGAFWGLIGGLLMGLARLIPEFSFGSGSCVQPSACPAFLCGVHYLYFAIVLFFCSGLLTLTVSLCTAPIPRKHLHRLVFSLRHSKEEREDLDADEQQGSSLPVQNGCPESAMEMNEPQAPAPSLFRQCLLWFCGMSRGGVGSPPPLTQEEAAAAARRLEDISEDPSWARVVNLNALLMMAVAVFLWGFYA

[3] = system: Male Sprague-Dawley (SD) rats; assay: Oral AMG test in rats: AMG measured by NMR in GI tract, plasma and urine after SGLT inhibitor dosing; format: in vivo, rat; details: for AMG content retained in the GI system / amount of AMG detected in plasma / amount of AMG detected in the urine: rats, compound 0.3 or 3.0 mg/kg oral, AMG 2 g/kg oral 1 h later; for AMG content retained in the GI system: FIG. 1A; for amount of AMG detected in plasma: FIG. 1B; for amount of AMG detected in the urine: FIG. 1C
Description: Male Sprague-Dawley (SD) rats were dosed by oral gavage with either vehicle, 0.5% methylcellulose (methocel) in sterile water, or one of the SGLT inhibitors (Compound 1 and Compound 2) at 0.3 or 3.0 mg/kg. Compounds were administered as a suspension in 0.5% methylcellulose and sterile water. One hour after dosing the animals with the compounds, AMG was administrated orally via gavage (2 g/kg). AMG was dissolved in sterile water. Rats were sacrificed 120 or 240 minutes after AMG administration. Urine and plasma samples were collected and the entire gastrointestinal tract was removed and placed into saline. Subsequently, a GI lysate was made. Aliquots were taken from the samples of plasma, urine and the GI lysate and were extracted with acetonitrile to precipitate protein. […] The aqueous portion was dried down and re-suspended in deuterated water to a volume of 0.5 ml.
Proton NMR spectra were acquired on a Bruker DMX 600 MHz NMR spectrometer (Bruker Biospin Corporation, Billerica, Mass.) with the probe temperature maintained at 32° C. The mildly elevated temperature was used to enhance the chemical shift separation between the solvent peak (the residual water in the sample) and the anomeric proton of AMG (a doublet at 4.80 ppm) which was used for quantification. The solvent peak was saturated using very low power irradiation (a field strength of about 4 Hz) during the pre-pulse delay followed by a 30° pulse to acquire the signal. The pre-pulse delay was 3.0 s and the acquisition time was 2.1 s. The sweep width was 13 ppm using 32 k complex points. Before fourier transformation the data was apodized with 0.5 Hz exponential linebroadening. The amount of AMG present in the sample was determined relative to an internal reference, DSS (2,2-dimethyl-2-silapentane-d6-sulfonic acid, sodim salt) at 0.00 ppm.

SGLT1 [4] = target: T1, SGLT1; assay: Cell-based 14C-AMG uptake inhibition assay, CHOK1 cells expressing human SGLT1; set-up: expressed in transfected cells; details: CHOK1 cells stably expressing human SGLT1, 0.5 mM 14C-AMG, 30 min uptake; read-out: hSGLT1 (IC50, nM) [A]
Description: (§1) Inhibition of SGLT activity with Compound 1 and Compound 2 was assessed in CHOK1 cells stably expressing either human SGLT1 or human SGLT2. Compound 1 and Compound 2, are described in U.S. Patent Application Nos. 2005/0233988 and 2008/0027122, the contents of which are incorporated by reference in their entirety.
CHOK1 cells expressing human SGLT2 or human SGLT1 were seeded in 24-well plates at a density of approximately 400,000 cells/well in F-12 nutrient mixture (Ham's F-12) containing 10% fetal bovine serum, 400 ug/ml Geneticin, 50 units/ml sodium penicillin G (Gibco-BRL) and 50 ug/ml streptomycin sulfate. Cells were maintained in culture for 2 days at 37° C. in a humidified atmosphere containing 5% CO2. On the day of the assay, Compound 1 and Compound 2 were dissolved in DMSO and then diluted in assay buffer. The final concentration of DMSO was 0.5%. Assay buffer contained 137 mM NaCl, 5 mM KCl, 1 mM CaCl2, 1 mM MgCl2, 50 mM Hepes, and 20 mM Tris, pH 7.4. To start the assay, cells were washed once with the assay buffer and then incubated with 250 ul of the assay buffer containing Compound 1 or Compound 2 for 10 min at 37° C. […] Cells were then solubilized with 0.3 N NaOH and aliquots were taken for determination of radioactivity by a liquid scintillation counter. […] Specific uptake was normalized for the protein concentrations measured by the method of Bradford. […]

SGLT2 [5] = target: T2, SGLT2; assay: Cell-based 14C-AMG uptake inhibition assay, CHOK1 cells expressing human SGLT2; set-up: expressed in transfected cells; details: for IC50: CHOK1 cells stably expressing human SGLT2, 0.5 mM 14C-AMG, 30 min uptake, read-out: hSGLT2 (IC50, nM) [B]; for [A]/[B] (fold): ratio hSGLT1 IC50 / hSGLT2 IC50
Description: as §1
CHOK1 cells expressing human SGLT2 or human SGLT1 were seeded in 24-well plates at a density of approximately 400,000 cells/well in F-12 nutrient mixture (Ham's F-12) containing 10% fetal bovine serum, 400 ug/ml Geneticin, 50 units/ml sodium penicillin G (Gibco-BRL) and 50 ug/ml streptomycin sulfate. Cells were maintained in culture for 2 days at 37° C. in a humidified atmosphere containing 5% CO2. On the day of the assay, Compound 1 and Compound 2 were dissolved in DMSO and then diluted in assay buffer. The final concentration of DMSO was 0.5%. Assay buffer contained 137 mM NaCl, 5 mM KCl, 1 mM CaCl2, 1 mM MgCl2, 50 mM Hepes, and 20 mM Tris, pH 7.4. To start the assay, cells were washed once with the assay buffer and then incubated with 250 ul of the assay buffer containing Compound 1 or Compound 2 for 10 min at 37° C. The transport reaction was initiated by addition of 50 ul ^14C-AMG solution (final concentration, 0.5 mM ^14C-AMG). After incubation for 30 minutes at 37° C., the uptake was stopped by aspiration of the incubation mixture and the cells were washed three times with ice-cold PBS. Cells were then solubilized with 0.3 N NaOH and aliquots were taken for determination of radioactivity by a liquid scintillation counter. Nonspecific AMG uptake was defined as that which occurred in the presence of 100 uM of phlorizin, a specific inhibitor of sodium-dependent glucose cotransporter. Specific uptake was normalized for the protein concentrations measured by the method of Bradford. The 50% inhibitory concentration (IC50) values were calculated from dose-response curves by least square method.

[6] = system: facilitated glucose transporters (GLUTs); details: cited from earlier work
[7] = system: rodent models of diabetes and one canine diabetes model; details: cited from earlier work
[8] = rodent models of diabetes and one canine diabetes model

absorption of oral AMG in vehicle treated rats ([3]; AMG 2 g/kg oral gavage, vehicle treated rats, GI system, plasma and urine samples): absorbed from the GI system
Structure (SMILES): CO[C@H]1O[C@H](CO)[C@@H](O)[C@H](O)[C@H]1O [AMG, Methyl-alpha-D-glucopyranoside]
Km (SGLT1 [1]): 400 µM | Km (SGLT2 [2]): 1600 µM

Structure (SMILES): CCc1ccc(Cc2cn([C@@H]3O[C@H](CO)[C@@H](O)[C@H](O)[C@H]3O)c3ccccc23)cc1 [Compound 1]
IC50 (SGLT1 [4]): 1700 nM | IC50 (SGLT2 [5]): 8.4 nM | [A]/[B] (fold) (SGLT2 [5]): 202 fold | AMG content retained in the GI system [3]: did not cause a significant retention | amount of AMG detected in plasma [3]: dose-dependent decreases | amount of AMG detected in the urine [3]: increase in the amount of AMG detected in the urine

Structure (SMILES): OC[C@@H]1O[C@H](n2cc(Cc3ccc(C4CC4)cc3)c3c(F)cccc32)[C@@H](O)[C@H](O)[C@H]1O [Compound 2]
IC50 (SGLT1 [4]): 270 nM | IC50 (SGLT2 [5]): 1.9 nM | [A]/[B] (fold) (SGLT2 [5]): 142 fold | AMG content retained in the GI system [3]: markedly increased at the higher dose | amount of AMG detected in plasma [3]: dose-dependent decreases | amount of AMG detected in the urine [3]: increased amount of AMG detected in the urine

Structure (SMILES): O=C(CCc1ccc(O)cc1)c1c(O)cc(O)cc1O [phloretin]
inhibition of facilitated glucose transporters (GLUTs) [6]: potent inhibitor

Structure (SMILES): O=C(CCc1ccc(O)cc1)c1c(O)cc(O)cc1O[C@@H]1O[C@H](CO)[C@@H](O)[C@H](O)[C@H]1O [phlorizin]
fasting and fed plasma glucose levels [7, 8]: lowered fasting and fed plasma glucose levels | glucose excretion [7, 8]: promoted glucose excretion | adverse effects on plasma ion balance, renal function or renal morphology ([7]; treatment for as long as two weeks): No adverse effects
